Laboratory results published in patent US9708286B2, “Ingenol-3-acylates III and ingenol-3-carbamates” (LEO Laboratories Limited, priority 2010, dated 2017).
pEC50: −log10 of the molar value. Like-named read-outs stand apart in the source and are kept apart here.

What was measured:
Format in all cases: cell-based
[1] = system: Primary human epidermal keratinocytes, HeKa; assay: HeKa cytokine release (IL-8); conditions: Homo sapiens, read-out: HeKa cytokine release (IL-8) Rel EC50 range
Protocol: Primary human epidermal keratinocytes, HeKa, were seeded (10.000 cells/well) in 96-well plates the day before the assay. Test compounds were diluted in DMSO (dimethyl sulfoxide) and further diluted in assay medium and pipetted into wells of 96 well-plates containing HeKa cells. The plates were incubated for 6 h at 37° C. in humidified air with 5% CO2. Plates were centrifuged briefly to spin down cells at 4° C., the supernatant was removed and analysed by Meso Scale Discovery (MSD) 4-spot cytokine assay (Pro-inflammatory II Ultra Sensitive kit, MSD, MD, USA). The MSD assay employs a sandwich immunoassay format where capture antibodies are coated in a patterned array on the bottom of the wells of a 4-Spot-Multi-MSD plate. Standard samples were incubated in the MULTI-SPOT plates as well, and the cytokine (IL-8) binds to its corresponding capture antibody spot. The cytokine level was quantitated on a SECTOR™ Imager using a cytokine-specific Detection Antibody labelled with MSD SULFO-TAG™ reagent.
Test compound titration curves were fitted to a four-parameter sigmoidal curve after normalizing the effect of the test compound to the effect of the positive control (1.5×10^−7 M PEP0005). Rel EC50 denotes the concentration of test compound producing an effect that is midway between the fitted top and bottom.

[2] = system: PMN's (polymorphonuclear leukocytes); assay: Neutrophil oxidative burst; conditions: Leukocyte, 40 min, normalized to 5×10^−7 M PEP0005
Outline: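 Human buffy-coat neutrophils (2.5×10^5/well) in HBSS with 0.1% BSA, 5 mM glucose treated with compound premixed with 10 μM hydroethidine for 40 min at RT; fluorescence read at 485/579 nm. Normalized to 5×10^−7 M PEP0005; Rel EC50 is midway between fitted top and bottom, Abs EC50 gives 50% of PEP0005 maximum.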

HeLa cells = assay: Necrosis assay; conditions: Homo sapiens, 0.5 h, read-out: HeLa necrosis EC50 range
Outline: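 HeLa cells treated with compound at 10 μM to 400 μM (final) for 30 min at 37° C., viability then measured by PrestoBlue fluorescence (ex 535/em 630 nm). Normalized to 1% DMSO and 400 μM ingenol mebutate controls; AbsEC50 from four-parameter sigmoidal fit.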

[3] = read-out: Neutrophil oxidative burst Rel EC50 range, PMN from buffy coats, 40 min at RT, hydroethidine fluorescence
[4] = HeKa cells, 6 h at 37° C., IL-8 by MSD assay, normalized to 1.5×10^−7 M PEP0005
[5] = PMN from buffy coats, 40 min at RT, hydroethidine fluorescence, read-out: Neutrophil oxidative burst Rel EC50 range
[6] = HeLa cells, 30 min at 37° C., PrestoBlue, AbsEC50, normalized to 400 μM ingenol mebutate

| SMILES | pEC50 ([1]; HEKa, 6 h) | pEC50 [2, 3] | pEC50 (HeLa cells; HeLa) | pEC50 [1, 4] | pEC50 [2, 5] | pEC50 (HeLa cells; [6]) |
| --- | --- | --- | --- | --- | --- | --- |
| CC1=C[C@]23C(=O)[C@@H](C=C(CO)[C@@H](O)[C@]2(O)[C@H]1OC(=O)c1c(-c2ccccc2C)cnn1C)[C@H]1[C@@H](C[C@H]3C)C1(C)C [Compound 555, Ingenol 3-(4-(2-methylphenyl)-2-methyl-pyrazole-3-carboxylate)] | > 7.70 | > 7.70 | > 3.82 |  |  |  |
| CC1=C[C@]23C(=O)[C@@H](C=C(CO)[C@@H](O)[C@]2(O)[C@H]1OC(=O)c1nc(Cl)sc1C(C)C)[C@H]1[C@@H](C[C@H]3C)C1(C)C [Compound 539, Ingenol 3-(2-chloro-5-isopropyl-thiazole-4-carboxylate)] | > 7.70 | 7.00 to 7.70 | > 3.82 |  |  |  |
| CC1=C[C@]23C(=O)[C@@H](C=C(CO)[C@@H](O)[C@]2(O)[C@H]1OC(=O)N1CCc2ccccc21)[C@H]1[C@@H](C[C@H]3C)C1(C)C [Compound 727, Ingenol 3-(indoline-1-carboxylate)] | > 7.70 | > 7.70 | > 3.82 |  |  |  |
| CC1=C[C@]23C(=O)[C@@H](C=C(CO)[C@@H](O)[C@]2(O)[C@H]1OC(=O)N(C)c1cc(C)n(C)n1)[C@H]1[C@@H](C[C@H]3C)C1(C)C [Compound 721, Ingenol 3-(N-(1,5-dimethylpyrazol-3-yl)-N-methyl-carbamate)] | 7.00 to 7.70 | 7.00 to 7.70 | < 3.46 |  |  |  |
| CC1=C[C@]23C(=O)[C@@H](C=C(CO)[C@@H](O)[C@]2(O)[C@H]1OC(=O)N1CC2CCC(CC2)C1)[C@H]1[C@@H](C[C@H]3C)C1(C)C [Compound 736, Ingenol 3-(3-azabicyclo[3.2.2]nonane-3-carboxylate)] |  |  |  | > 7.70 | > 7.70 | 3.46 to 3.82 |
| CC1=C[C@]23C(=O)[C@@H](C=C(CO)[C@@H](O)[C@]2(O)[C@H]1OC(=O)N(C)C1CCOCC1)[C@H]1[C@@H](C[C@H]3C)C1(C)C [Compound 747, Ingenol 3-(N-methyl-N-(tetrahydropyran-4-yl)-carbamate)] | < 7.00 | 7.00 to 7.70 | < 3.46 |  |  |  |
| CC1=C[C@]23C(=O)[C@@H](C=C(CO)[C@@H](O)[C@]2(O)[C@H]1OC(=O)c1nn(C)cc1Br)[C@H]1[C@@H](C[C@H]3C)C1(C)C [Compound 570, Ingenol 3-(4-bromo-1-methyl-pyrazole-3-carboxylate)] | < 7.00 | 7.00 to 7.70 | 3.46 to 3.82 |  |  |  |
| CC1=C[C@]23C(=O)[C@@H](C=C(CO)[C@@H](O)[C@]2(O)[C@H]1OC(=O)c1nn(C)c2ccccc12)[C@H]1[C@@H](C[C@H]3C)C1(C)C [Compound 506, Ingenol 3-(1-methylindazole-3-carboxylate)] | > 7.70 | > 7.70 | > 3.82 |  |  |  |
| CC1=C[C@]23C(=O)[C@@H](C=C(CO)[C@@H](O)[C@]2(O)[C@H]1OC(=O)N(C)c1cccc(F)c1)[C@H]1[C@@H](C[C@H]3C)C1(C)C [Compound 718, Ingenol 3-(N-(3-fluoro-phenyl)-N-methyl-carbamate)] | > 7.70 | > 7.70 | 3.46 to 3.82 |  |  |  |
| CC1=C[C@]23C(=O)[C@@H](C=C(CO)[C@@H](O)[C@]2(O)[C@H]1OC(=O)c1cc(C)nn1C(C)(C)C)[C@H]1[C@@H](C[C@H]3C)C1(C)C [Compound 532, Ingenol 3-(2-tert-butyl-5-methyl-pyrazole-3-carboxylate)] | > 7.70 | 7.00 to 7.70 | > 3.82 |  |  |  |
| CC1=C[C@]23C(=O)[C@@H](C=C(CO)[C@@H](O)[C@]2(O)[C@H]1OC(=O)c1c(C)cn(C)c1C)[C@H]1[C@@H](C[C@H]3C)C1(C)C [Compound 541, Ingenol 3-(1,2,4-trimethylpyrrole-3-carboxylate)] | > 7.70 | > 7.70 | 3.46 to 3.82 |  |  |  |
| CC1=C[C@]23C(=O)[C@@H](C=C(CO)[C@@H](O)[C@]2(O)[C@H]1OC(=O)N(C)c1ccc(Cl)cc1)[C@H]1[C@@H](C[C@H]3C)C1(C)C [Compound 729, Ingenol 3-(N-(4-chloro-phenyl)-N-methyl-carbamate)] | > 7.70 | > 7.70 | 3.46 to 3.82 |  |  |  |
| CC1=C[C@]23C(=O)[C@@H](C=C(CO)[C@@H](O)[C@]2(O)[C@H]1OC(=O)c1sc(C)nc1C)[C@H]1[C@@H](C[C@H]3C)C1(C)C [Compound 527, Ingenol 3-(2,4-dimethylthiazole-5-carboxylate)] | 7.00 to 7.70 | > 7.70 | 3.46 to 3.82 |  |  |  |
| CC1=C[C@]23C(=O)[C@@H](C=C(CO)[C@@H](O)[C@]2(O)[C@H]1OC(=O)c1c(C)noc1C)[C@H]1[C@@H](C[C@H]3C)C1(C)C [Compound 508, Ingenol 3-(3-methyl-5-methyl-isoxazole-4-carboxylate)] | > 7.70 | > 7.70 | 3.46 to 3.82 |  |  |  |
| CC1=C[C@]23C(=O)[C@@H](C=C(CO)[C@@H](O)[C@]2(O)[C@H]1OC(=O)N1CCCC(C)(C)C1)[C@H]1[C@@H](C[C@H]3C)C1(C)C [Compound 713, Ingenol 3-(3,3-dimethyl-piperidine-1-carboxylate)] | > 7.70 | 7.00 to 7.70 | 3.46 to 3.82 |  |  |  |
| CC1=C[C@]23C(=O)[C@@H](C=C(CO)[C@@H](O)[C@]2(O)[C@H]1OC(=O)c1c(C)nsc1C)[C@H]1[C@@H](C[C@H]3C)C1(C)C [Compound 552, Ingenol 3-(3,5-dimethylisothiazole-4-carboxylate)] | 7.00 to 7.70 | 7.00 to 7.70 | 3.46 to 3.82 |  |  |  |
| CC1=C[C@]23C(=O)[C@@H](C=C(CO)[C@@H](O)[C@]2(O)[C@H]1OC(=O)c1c(C)c[nH]c1C)[C@H]1[C@@H](C[C@H]3C)C1(C)C [Compound 580, Ingenol 3-(2,4-dimethyl-1H-pyrrole-3-carboxylate)] | < 7.00 | < 7.00 | 3.46 to 3.82 |  |  |  |
| CC1=C[C@]23C(=O)[C@@H](C=C(CO)[C@@H](O)[C@]2(O)[C@H]1OC(=O)c1[nH]ccc1C)[C@H]1[C@@H](C[C@H]3C)C1(C)C [Compound 584, Ingenol 3-(3-methyl-1H-pyrrole-2-carboxylate)] | > 7.70 | > 7.70 | 3.46 to 3.82 |  |  |  |
| COc1ccc2c(c1)c(C(=O)O[C@H]1C(C)=C[C@]34C(=O)[C@@H](C=C(CO)[C@@H](O)[C@]13O)[C@H]1[C@@H](C[C@H]4C)C1(C)C)c(C)n2C [Compound 565, Ingenol 3-(5-methoxy-1,2-dimethyl-indole-3-carboxylate)] | > 7.70 | > 7.70 | > 3.82 |  |  |  |
| CC1=C[C@]23C(=O)[C@@H](C=C(CO)[C@@H](O)[C@]2(O)[C@H]1OC(=O)c1noc2ccccc12)[C@H]1[C@@H](C[C@H]3C)C1(C)C [Compound 517, Ingenol 3-(1,2-benzoxazole-3-carboxylate)] | < 7.00 | 7.00 to 7.70 | > 3.82 |  |  |  |
| CC1=C[C@]23C(=O)[C@@H](C=C(CO)[C@@H](O)[C@]2(O)[C@H]1OC(=O)c1cc(C)n(C2CC2)c1C)[C@H]1[C@@H](C[C@H]3C)C1(C)C [Compound 578, Ingenol 3-(1-cyclopropyl-2,5-dimethyl-pyrrole-3-carboxylate)] | > 7.70 | > 7.70 | > 3.82 |  |  |  |
| CCc1noc(CC)c1C(=O)O[C@H]1C(C)=C[C@]23C(=O)[C@@H](C=C(CO)[C@@H](O)[C@]12O)[C@H]1[C@@H](C[C@H]3C)C1(C)C [Compound 530, Ingenol 3-(3,5-diethylisoxazole-4-carboxylate)] |  |  |  | > 7.70 | > 7.70 | > 3.82 |
| CC1=C[C@]23C(=O)[C@@H](C=C(CO)[C@@H](O)[C@]2(O)[C@H]1OC(=O)C1=C(C)C(=O)OC12CCCCC2)[C@H]1[C@@H](C[C@H]3C)C1(C)C [Compound 550, Ingenol 3-(2-methyl-3-oxo-4-oxaspiro[4.5]dec-1-ene-1-carboxylate)] | > 7.70 | > 7.70 | > 3.82 |  |  |  |
